In patent US6967196B1, “Sulfonamide compounds and uses thereof” (Bristol-Myers Squibb Company, priority 1999, dated 2005):
Structures can show the parent of a compound that is named as a salt. Where two headings read alike, the source gives them in different places.

Test system: amyloid β production in transfected H4 (human neuroglioma) cells stably expressing APP constructs
Experiment: In vitro cell-based assay of inhibitors of amyloid β production (ELISA)
Details: transfected H4 cells stably expressing APP, approximately 16 hours incubation, amyloid β in medium by ELISA, Table B, read-out: ACTIVITY (IC50, inhibition of amyloid β production)
Method in brief: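 Test agents are screened at 10-100 μM for about 16 hours on cells stably expressing wild-type or variant APP. Secreted Aβ is measured by ELISA and compared with control-treated cells.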

| IC50 (Homo sapiens, 16 h) | IC50 | SMILES |
| --- | --- | --- |
| 0.05 to 0.1 µM | – | C[C@H](c1ccc(F)cc1COCc1ccccn1)N(c1cc(F)ccc1F)S(=O)(=O)c1ccc(Cl)cc1 [Example 400, 4-chloro-N-(2,5-difluorophenyl)-N-((1R)-1-{4-fluoro-2-[(2-pyridinylmethoxy)methyl]phenyl}ethyl)benzenesulfonamide] |
| 0.05 to 0.1 µM | – | C[C@H](c1ccccc1CCC(=O)NC1CCCCC1)N(c1cc(F)ccc1F)S(=O)(=O)c1ccc(Cl)cc1 [Example 401, 3-[2-((1R)-1-{[(4-chlorophenyl)sulfonyl]-2,5-difluoroanilino}ethyl)phenyl]-N-cyclohexylpropanamide] |
| 0.05 to 0.1 µM | – | CC(CNC(=O)OCCc1ccccc1[C@@H](C)N(c1cc(F)ccc1F)S(=O)(=O)c1ccc(Cl)cc1)c1ccccc1 (stereo partly drawn) [Example 402, 2-[2-((1R)-1-{[(4-chlorophenyl)sulfonyl]-2,5-difluoroanilino}ethyl)phenyl]ethyl 2-phenylpropylcarbamate] |
| 0.05 to 0.1 µM | – | C[C@H](c1ccccc1CCC(=O)Nc1ccccc1)N(c1cc(F)ccc1F)S(=O)(=O)c1ccc(Cl)cc1 [Example 403, 3-[2-((1R)-1-{[(4-chlorophenyl)sulfonyl]-2,5-difluoroanilino}ethyl)phenyl]-N-phenylpropanamide] |
| 0.05 to 0.1 µM | – | C[C@H](c1ccccc1CCC(=O)NCc1ccco1)N(c1cc(F)ccc1F)S(=O)(=O)c1ccc(Cl)cc1 [Example 404, 3-[2-((1R)-1-{[(4-chlorophenyl)sulfonyl]-2,5-difluoroanilino}ethyl)phenyl]-N-(2-furylmethyl)propanamide] |
| 0.05 to 0.1 µM | – | C[C@H](c1ccccc1CCC(=O)NC1CCCc2ccccc21)N(c1cc(F)ccc1F)S(=O)(=O)c1ccc(Cl)cc1 (stereo partly drawn) [Example 406, 3-[2-((1R)-1-{[(4-chlorophenyl)sulfonyl]-2,5-difluoroanilino}ethyl)phenyl]-N-(1,2,3,4-tetrahydro-1-naphthalenyl)propanamide] |
| 0.05 to 0.1 µM | – | CC(c1ccccc1OCCCNC(=O)c1c(F)cccc1F)N(c1cc(F)ccc1F)S(=O)(=O)c1ccc(Cl)cc1 (stereo not shown) [Example 408, N-{3-[2-(1-{[(4-chlorophenyl)sulfonyl]-2,5-difluoroanilino}ethyl)phenoxy]propyl}-2,6-difluorobenzamide] |
| 0.05 to 0.1 µM | – | CC(c1ccccc1OCCCN(C)S(=O)(=O)c1ccc([N+](=O)[O-])cc1)N(c1cc(F)ccc1F)S(=O)(=O)c1ccc(Cl)cc1 (stereo not shown) [Example 410, 4-chloro-N-(2,5-difluorophenyl)-N-{1-[2-(3-{methyl[(4-nitrophenyl)sulfonyl]amino}propoxy)phenyl]ethyl}benzenesulfonamide] |
| 0.05 to 0.1 µM | – | CCN(CCOc1ccccc1C(C)N(c1cc(F)ccc1F)S(=O)(=O)c1ccc(Cl)cc1)C(=O)CSc1ccccc1 (stereo not shown) [Example 417, N-{2-[2-(1-{[(4-chlorophenyl)sulfonyl]-2,5-difluoroanilino}ethyl)phenoxy]ethyl}-N-ethyl-2-(phenylsulfanyl)acetamide] |
| 0.05 to 0.1 µM | – | C[C@H](c1ccc(F)cc1CCOC(=O)NCc1ccc(F)cc1)N(c1cc(F)ccc1F)S(=O)(=O)c1ccc(Cl)cc1 [Example 419, 2-[2-((1R)-1-{[(4-chlorophenyl)sulfonyl]-2,5-difluoroanilino}ethyl)-5-fluorophenyl]ethyl 4-fluorobenzylcarbamate] |
| 0.05 to 0.1 µM | – | CC(c1ccccc1OCCCN(C)C(=O)CCC1CCCC1)N(c1cc(F)ccc1F)S(=O)(=O)c1ccc(Cl)cc1 (stereo not shown) [Example 428, N-{3-[2-(1-{[(4-chlorophenyl)sulfonyl]-2,5-difluoroanilino}ethyl)phenoxy]propyl}-3-cyclopentyl-N-methylpropanamide] |
| 0.05 to 0.1 µM | – | C[C@H](c1ccc(F)cc1CCOC(=O)NCc1ccco1)N(c1cc(F)ccc1F)S(=O)(=O)c1ccc(Cl)cc1 [Example 435, 2-[2-((1R)-1-{[(4-chlorophenyl)sulfonyl]-2,5-difluoroanilino}ethyl)-5-fluorophenyl]ethyl 2 furylmethylcarbamate] |
| 0.05 to 0.1 µM | – | C[C@H](c1ccccc1Cn1ccnc1)N(c1cc(F)ccc1F)S(=O)(=O)c1ccc(Cl)cc1 [Example 438, 4-chloro-N-(2,5-difluorophenyl)-N-{(1R)-1-[2-(1H-imidazol-1-ylmethyl)phenyl]ethyl}benzenesulfonamide hydrochloride] |
| – | 0.05 to 0.1 µM | COC(=O)CCS(=O)(=O)Cc1cc(F)ccc1[C@@H](C)N(c1cc(F)ccc1F)S(=O)(=O)c1ccc(Cl)cc1 [Example 466, Methyl 3-{[2-((1R)-1-{[(4-chlorophenyl)sulfonyl]-2,5-difluoroanilino}ethyl)-5-fluorobenzyl]sulfonyl}propanoate] |
| – | 0.05 to 0.1 µM | C[C@H](c1ccc(F)cc1CS(=O)(=O)CCC(=O)O)N(c1cc(F)ccc1F)S(=O)(=O)c1ccc(Cl)cc1 [Example 467, 3-{[2-((1R)-1-{[(4-chlorophenyl)sulfonyl]-2,5-difluoroanilino}ethyl)-5-fluorobenzyl]sulfonyl}propanoic Acid] |
| – | 0.05 to 0.1 µM | COC(=O)CCSCCc1cc(F)ccc1[C@@H](C)N(c1cc(F)ccc1F)S(=O)(=O)c1ccc(Cl)cc1 [Example 473] |
| – | 0.1 to 0.5 µM | COC(=O)C[S+]([O-])CCc1cc(F)ccc1[C@@H](C)N(c1cc(F)ccc1F)S(=O)(=O)c1ccc(Cl)cc1 (stereo partly drawn) [Example 476, Methyl ({2-[2-((1R)-1-{[(4-chlorophenyl)sulfonyl]-2,5-difluoroanilino}ethyl)-5-fluorophenyl]ethyl}sulfinyl)acetate] |
| – | 0.1 to 0.5 µM | COC(=O)CSCCc1cc(F)ccc1[C@@H](C)N(c1cc(F)ccc1F)S(=O)(=O)c1ccc(Cl)cc1 [Example 477, Methyl ({2-[2-((1R)-1-[[(4-chlorophenyl)sulfonyl]-2,5-difluoroanilino}ethyl)-5-fluorophenyl]ethyl}sulfanyl)acetate] |

The remaining lines, values behind:

| SMILES | IC50 (Homo sapiens, 16 h) | IC50 |
| --- | --- | --- |
| C[C@H](c1ccc(F)cc1CN1CCS(=O)(=O)CC1)N(c1cc(F)ccc1F)S(=O)(=O)c1ccc(Cl)cc1 [Example 405] | 0.05 to 0.1 µM | – |
| O=S(=O)(c1ccc(Cl)cc1)N(Cc1ccccc1OCCC[S+]([O-])C1CCCCC1)c1cc(F)ccc1F (stereo not shown) [Example 407, 4-chloro-N-{2-[3-(cyclohexylsulfinyl)propoxy]benzyl}-N-(2,5-difluorophenyl)benzenesulfonamide] | 0.05 to 0.1 µM | – |
| COC(=O)[C@H](CSCc1cc(F)ccc1[C@@H](C)N(c1cc(F)ccc1F)S(=O)(=O)c1ccc(Cl)cc1)NC(=O)OC(C)(C)C [Example 468, Methyl (2R)-2-[(tert-butoxycarbonyl)amino]-3-{[2-((1R)-1-{[(4-chlorophenyl)sulfonyl]-2,5-difluoroanilino}ethyl)-5-fluorobenzyl]sulfanyl}propanoate] | – | 0.05 to 0.1 µM |
| COC(=O)[C@H](CS(=O)(=O)Cc1cc(F)ccc1[C@@H](C)N(c1cc(F)ccc1F)S(=O)(=O)c1ccc(Cl)cc1)NC(=O)OC(C)(C)C [Example 469, Methyl (2R)-2-[(tert-butoxycarbonyl)amino]-3-{[2-((1R)-1-{[(4-chlorophenyl)sulfonyl]-2,5-difluoroanilino}ethyl)-5-fluorobenzyl]sulfonyl}propanoate] | – | 0.05 to 0.1 µM |
| COC(=O)C(N)CS(=O)(=O)Cc1cc(F)ccc1[C@@H](C)N(c1cc(F)ccc1F)S(=O)(=O)c1ccc(Cl)cc1 (stereo partly drawn) [Example 470, Methyl 2-amino-3-{[2-(1R)-1-{[(4-chlorophenyl)sulfonyl]-2,5-difluoroanilino}ethyl)-5-fluorobenzyl]sulfonyl}propanoate Hydrochloride] | – | 0.05 to 0.1 µM |
| COC(=O)[C@@H](CS(=O)(=O)Cc1cc(F)ccc1[C@@H](C)N(c1cc(F)ccc1F)S(=O)(=O)c1ccc(Cl)cc1)NC(=O)OC(C)(C)C [Example 471, Methyl (2S)-2-[(tert-butoxycarbonyl)amino]-3-{[2-((1R)-1-{[(4-chlorophenyl)sulfonyl]-2,5-difluoroanilino}ethyl)-5-fluorobenzyl]sulfonyl}propanoate] | – | 0.05 to 0.1 µM |
| COC(=O)CCS(=O)(=O)CCc1cc(F)ccc1[C@@H](C)N(c1cc(F)ccc1F)S(=O)(=O)c1ccc(Cl)cc1 [Example 474, Methyl 3-({2-[2-((1R)-1-{[(4-chlorophenyl)sulfonyl]-2,5-difluoroanilino}ethyl)-5-fluorophenyl]ethyl}sulfonyl)propanoate] | – | 0.1 to 0.5 µM |
| C[C@H](c1ccc(F)cc1CCS(=O)(=O)CCC(=O)O)N(c1cc(F)ccc1F)S(=O)(=O)c1ccc(Cl)cc1 [Example 475, 3-({2-[2-((1R)-1-{[(4-chloro-phenyl)sulfonyl]-2,5-difluoroanilino}ethyl)-5-fluorophenyl]ethyl}sulfonyl)propanoic Acid] | – | 0.1 to 0.5 µM |
| COC(=O)CS(=O)(=O)CCc1cc(F)ccc1[C@@H](C)N(c1cc(F)ccc1F)S(=O)(=O)c1ccc(Cl)cc1 [Example 478, Methyl ({2-[2-((1R)-1-{[(4-chlorophenyl)sulfonyl]-2,5-difluoroanilino}ethyl)-5-fluorophenyl]ethyl}sulfonyl)acetate] | – | 0.1 to 0.5 µM |
| COC(=O)[C@H](CSCCCc1cc(F)ccc1[C@@H](C)N(c1cc(F)ccc1F)S(=O)(=O)c1ccc(Cl)cc1)NC(=O)OC(C)(C)C [Example 485] | – | 0.1 to 0.5 µM |
| COC(=O)[C@H](CS(=O)(=O)CCCc1cc(F)ccc1[C@@H](C)N(c1cc(F)ccc1F)S(=O)(=O)c1ccc(Cl)cc1)NC(=O)OC(C)(C)C [Example 486] | – | 0.1 to 0.5 µM |
| COC(=O)[C@@H](N)CS(=O)(=O)CCCc1cc(F)ccc1[C@@H](C)N(c1cc(F)ccc1F)S(=O)(=O)c1ccc(Cl)cc1 [Example 487, Methyl (2R)-2-amino-3-({3-[2-((1R)-1-{[(4-chlorophenyl)sulfonyl]-2,5-difluoroanilino}ethyl)-5-fluorophenyl]propyl}sulfonyl)propanoate Hydrochloride] | – | 0.1 to 0.5 µM |
| O=S1(=O)CCN(CCCOc2ccccc2CN(c2ccccc2)S(=O)(=O)c2ccc(Cl)cc2)CC1 [Example 492, 4-chloro-N-{2-[3-(1,1-dioxido-4-thiomorpholinyl)propoxy]benzyl}-N-phenylbenzenesulfonamide hydrochloride] | 0.1 to 0.5 µM | – |
